Laboratory results: US20250134855A1, “CO[…] AND METHODS OF USING SAME” (LYKOS THERAPEUTICS, INC., priority 2022, published 2025)

Experiments:
[1] = biological target: bile salt export pump (BSEP) (Homo sapiens, UniProt O95342); assay: Transporter inhibition, BSEP
OATP1B3 = OATP1B3 (Homo sapiens, UniProt Q9NPD5); assay: Transporter inhibition, OATP1B3
[2] = tested on: participants with PTSD of moderate or greater severity; assay: MAPP2 Phase 3: Sheehan Disability Scale (SDS); format: in vivo, human
Source text: (§1) FIG. 36 and FIG. 37 show the time course of improvement in Clinician Administered PTSD Scale for DSM-5 (CAPS-5) total severity score versus placebo. Each show a treatment difference between MDMA and placebo after 3 medication sessions with psychological intervention. […] Between the second and third treatment sessions, the difference between the groups appeared to continue to increase in both studies. The primary efficacy measure was change from baseline in the CAPS-5 total severity score at 18 weeks, which was evaluated 2 months after the final dosing session. The CAPS-5 is a 30-item, clinician-rated scale used to assess severity of PTSD symptoms and diagnostic status according to DSM-5 criteria, as described herein. Scores on the CAPS 5 range from 0 to 80, with higher scores indicating more severe PTSD symptoms. In both studies, a secondary efficacy measure was change from baseline in Sheehan Disability Scale (SDS) mean item scores at 18 weeks. The modified SDS is a 3-item, clinician-rated scale measuring the degree of functional impairment in work, family, and social life. Scores on the SDS mean items range from 0 to 10, with higher scores indicating more functional impairment. In these studies, the efficacy assessments were administered by blinded independent raters 18 to 30 days after medication sessions 1 and 2.
MAPP2 was a Phase 3 randomized, placebo-controlled, 2-arm, double-blind, multi-site study conducted to investigate the efficacy and safety of MDMA-AT in participants with PTSD of moderate or greater severity. This study included 3 experimental sessions of therapy combined with either MDMA or placebo. During Experimental Session 1, participants received a split dose of 120 mg (80 mg+40 mg). Participants received an escalated split dose of 180 mg during Experimental Sessions 2 and 3 unless there were tolerability issues or the participant declined.
The primary outcome measure, the CAPS-5, evaluated changes in PTSD symptom severity and the secondary outcome measure, the SDS, evaluated changes in functional impairment. Both measures were assessed by a blinded centralized language-specific IR pool.
The de jure estimand of treatment efficacy was used to determine the effect of MDMA-AT on SDS total score in the mITT analysis set.

[3] = tested on: participants with severe PTSD; assay: MAPP1 Phase 3: CAPS-5 total severity score; format: in vivo, human; details: for CFB in CAPS-5 Total Severity Score, LS mean for treatment difference (95% CI) / CFB in CAPS-5 Total Severity Score, LS mean / CAPS-5 Total Severity Score, Mean / CAPS-5 Total Severity Score, Median / CFB in CAPS-5 Total Severity Score, Mean / CFB in CAPS-5 Total Severity Score, Median / Loss of Diagnosis, % / Non-Responder (<10-point reduction in CAPS-5 Total Severity Score), % / Remission, % / Responder (≥10-point reduction in CAPS-5 Total Severity Score), %: MAPP1, mITT; for CFB in CAPS-5 Total Severity Score, LS mean for treatment difference (95% CI): vs placebo with therapy
Source text: as §1
A flexible dose of MDMA hydrochloride salt (referred to as MDMA throughout) or placebo, followed by a supplemental half-dose unless contraindicated, was administered during the Treatment Period with manualized psychotherapy in three blinded monthly Experimental Sessions. This ˜12-week Treatment Period was preceded by three Preparatory Sessions. During the Treatment Period, each Experimental Session was followed by three Integrative Sessions of non-drug psychotherapy. Experimental Sessions were followed by an overnight stay. The Primary Outcome measure, the change in Clinician Administered PTSD Scale (CAPS-5), was assessed by a blinded centralized Independent Rater (IR) pool multiple times throughout the study. Three blinded manualized Experimental Sessions of psychotherapy assisted by flexible doses of MDMA·HCl or placebo were administered (see Table 28 below). Initial doses per Experimental Session include 80 mg or 120 mg MDMA compounded with mannitol and magnesium stearate or indistinguishable weight placebos comprised entirely of mannitol and magnesium stearate, followed 1.5 to 2 hours later by a supplemental half-dose (40 mg or 60 mg MDMA·HCl or placebo). Total amounts of MDMA·HCl to be administered per Experimental Session range from 80 mg to 180 mg. All drug is encapsulated with HPMC capsules.
In the first Experimental Session, the initial dose was 80 mg MDMA·HCl or placebo. In the second and third Experimental Sessions, the initial dose may be increased to 120 mg MDMA·HCl or placebo unless contraindicated. The choice of whether to keep the dose the same or change it from the first Experimental Session was made by the therapy team the in consultation with the site physician based on observed response, tolerability to the previously administered dose, and discussion with the participant. In each Experimental Session, 1.5 to 2 hours after the initial dose is given, the participant was administered a supplemental half-dose unless contraindicated. If an AE requiring medical attention occurs between the initial and supplemental dose this was evaluated as a potential contraindication by the site physician. If a participant prefers not to take the supplemental dose, the reason was documented. Participants will not know if they have been assigned MDMA or placebo but can indicate if they want the dose to change or remain the same.
The MDMA assisted therapy (MDMA-AT) approach is detailed in the “Manual for MDMA Assisted Therapy in the Treatment of PTSD,” published by MAPS (MDMA Treatment Manual, available at maps.org/treatment-manual). […]

[4] = MAPP2, mITT, Baseline (Visit 3)
[5] = MAPP2, mITT, Baseline to Visit 19
[6] = MAPP2, mITT, Visit 19 (Primary Endpoint)
[7] = end of treatment, 52 patients (study not given)
[8] = de jure estimand, Baseline CAPS-5 T1 (Visit 3)
[9] = de jure estimand, CAPS-5 T2 (Visit 8)
[10] = de jure estimand, CAPS-5 T3 (Visit 13)
[11] = de jure estimand, CAPS-5 T4 (Visit 19)
[12] = de jure estimand, CFB to T2 (Visit 8)
[13] = de jure estimand, CFB to T3 (Visit 13)
[14] = de jure estimand, CFB to T4 (Visit 19)
[15] = T4 (primary) endpoint (Visit 19)

OATP1B3, sequence (Q9NPD5 whole entry): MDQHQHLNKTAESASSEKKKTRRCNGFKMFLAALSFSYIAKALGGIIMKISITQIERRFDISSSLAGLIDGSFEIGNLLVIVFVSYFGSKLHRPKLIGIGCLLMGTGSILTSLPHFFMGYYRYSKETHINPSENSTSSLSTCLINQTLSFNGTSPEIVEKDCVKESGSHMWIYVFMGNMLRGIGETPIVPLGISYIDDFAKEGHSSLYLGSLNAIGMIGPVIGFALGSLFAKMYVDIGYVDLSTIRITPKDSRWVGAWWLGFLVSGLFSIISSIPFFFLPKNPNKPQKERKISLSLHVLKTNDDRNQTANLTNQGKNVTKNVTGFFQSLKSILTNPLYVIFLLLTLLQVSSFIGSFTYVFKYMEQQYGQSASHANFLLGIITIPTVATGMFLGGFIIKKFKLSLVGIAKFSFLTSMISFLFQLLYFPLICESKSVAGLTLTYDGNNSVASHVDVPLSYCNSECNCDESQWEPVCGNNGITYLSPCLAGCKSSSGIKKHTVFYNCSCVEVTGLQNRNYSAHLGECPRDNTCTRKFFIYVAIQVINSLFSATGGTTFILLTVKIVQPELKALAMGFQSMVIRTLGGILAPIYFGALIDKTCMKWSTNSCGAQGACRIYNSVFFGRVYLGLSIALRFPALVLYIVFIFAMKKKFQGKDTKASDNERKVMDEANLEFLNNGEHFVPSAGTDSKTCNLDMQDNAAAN
bile salt export pump (BSEP), sequence (O95342 whole entry): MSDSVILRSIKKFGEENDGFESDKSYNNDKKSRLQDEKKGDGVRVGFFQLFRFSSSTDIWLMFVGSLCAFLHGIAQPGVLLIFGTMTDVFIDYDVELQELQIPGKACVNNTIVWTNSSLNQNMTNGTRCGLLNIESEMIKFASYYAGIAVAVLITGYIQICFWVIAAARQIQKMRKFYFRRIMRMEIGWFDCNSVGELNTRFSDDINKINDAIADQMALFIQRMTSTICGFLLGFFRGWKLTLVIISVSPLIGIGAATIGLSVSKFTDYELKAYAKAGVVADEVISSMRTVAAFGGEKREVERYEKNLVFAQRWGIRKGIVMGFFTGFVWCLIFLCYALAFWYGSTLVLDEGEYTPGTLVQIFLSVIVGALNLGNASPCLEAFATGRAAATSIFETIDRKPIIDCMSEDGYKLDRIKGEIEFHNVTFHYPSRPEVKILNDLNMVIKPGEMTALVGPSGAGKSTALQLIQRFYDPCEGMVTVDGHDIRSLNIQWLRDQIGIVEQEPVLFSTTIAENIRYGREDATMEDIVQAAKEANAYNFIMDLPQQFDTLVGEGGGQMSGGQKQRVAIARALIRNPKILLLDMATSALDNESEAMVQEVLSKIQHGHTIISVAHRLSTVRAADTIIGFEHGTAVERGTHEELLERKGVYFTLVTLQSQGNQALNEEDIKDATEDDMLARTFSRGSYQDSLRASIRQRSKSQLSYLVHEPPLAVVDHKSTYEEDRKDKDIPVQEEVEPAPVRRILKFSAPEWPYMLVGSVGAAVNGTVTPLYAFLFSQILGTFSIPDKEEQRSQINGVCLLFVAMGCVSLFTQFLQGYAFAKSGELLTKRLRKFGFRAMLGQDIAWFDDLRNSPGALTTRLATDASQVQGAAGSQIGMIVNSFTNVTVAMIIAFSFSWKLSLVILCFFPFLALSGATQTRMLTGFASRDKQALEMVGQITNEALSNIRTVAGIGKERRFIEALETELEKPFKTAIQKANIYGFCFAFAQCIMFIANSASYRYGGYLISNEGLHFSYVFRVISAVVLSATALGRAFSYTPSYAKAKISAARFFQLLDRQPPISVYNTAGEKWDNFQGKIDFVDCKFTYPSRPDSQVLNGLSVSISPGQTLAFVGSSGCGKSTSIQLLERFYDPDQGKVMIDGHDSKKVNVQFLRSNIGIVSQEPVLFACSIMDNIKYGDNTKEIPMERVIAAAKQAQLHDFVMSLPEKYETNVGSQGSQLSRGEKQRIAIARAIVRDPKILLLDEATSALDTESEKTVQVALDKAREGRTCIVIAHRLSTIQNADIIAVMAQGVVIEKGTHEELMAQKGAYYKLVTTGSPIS

SMILES: CNC(C)Cc1ccc2c(c1)OCO2 (centres unmarked) [MDMA, 3,4-methylenedioxymethamphetamine]
- inhibition of BSEP [1]: not an inhibitor
- inhibition of OATP1B3 (OATP1B3): not an inhibitor
- SDS Total Score CFB, LSMean ([2]; MAPP2, mITT, MMRM, Visit 19): −3.31
- SDS Total Score CFB, LSMean for Treatment Difference ([2]; MAPP2, mITT, MMRM, vs placebo with therapy, Visit 19): −1.20
- SDS Total Score, Mean [2, 4]: 6.0
- SDS Total Score, Median [2, 4]: 6.3
- SDS Total Score CFB, Mean [2, 5]: −3.3
- SDS Total Score CFB, Median [2, 5]: −4.0
- SDS Total Score, Mean ([2]; MAPP2, mITT, Visit 8): 4.1
- SDS Total Score, Median ([2]; MAPP2, mITT, Visit 8): 4.3
- SDS Total Score, Mean ([2]; MAPP2, mITT, Visit 13): 2.9
- SDS Total Score, Median ([2]; MAPP2, mITT, Visit 13): 2.7
- SDS Total Score, Mean [2, 6]: 2.7
- SDS Total Score, Median [2, 6]: 2.3
- reduction in SDS total scores ([2]; MAPP2, MMRM, de jure estimand, mITT): −3.31
- SDS Remission (SDS mean item score < 3) [2, 7]: (55.8) %
- SDS Remission (SDS mean item score < 3), n [2, 7]: 29
- SDS Responder (4 point or greater reduction from baseline SDS mean item score) [2, 7]: (53.8) %
- SDS Responder (4 point or greater reduction from baseline SDS mean item score), n [2, 7]: 28
- onset of treatment efficacy (CAPS-5 versus placebo) ([3]; FIG. 36 and FIG. 37, both studies): after the second session
- CFB in CAPS-5 Total Severity Score, LS mean for treatment difference (95% CI) ([3]; MMRM, T2 (Visit 8)): −3.69 (−7.93, 0.54)
- CFB in CAPS-5 Total Severity Score, LS mean for treatment difference (95% CI) ([3]; MMRM, T3 (Visit 13)): −8.41 (−13.53, −3.29)
- CFB in CAPS-5 Total Severity Score, LS mean for treatment difference (95% CI) ([3]; MMRM, T4 (Visit 19)): −11.86 (−17.41, −6.32)
- CFB in CAPS-5 Total Severity Score, LS mean ([3]; de jure estimand, MMRM, CFB to T2 (Visit 8)): −10.40
- CFB in CAPS-5 Total Severity Score, LS mean ([3]; de jure estimand, MMRM, CFB to T3 (Visit 13)): −17.83
- CFB in CAPS-5 Total Severity Score, LS mean ([3]; de jure estimand, MMRM, CFB to T4 (Visit 19)): −24.50
- CAPS-5 Total Severity Score, Mean [3, 8]: 44.0
- CAPS-5 Total Severity Score, Median [3, 8]: 43.5
- CAPS-5 Total Severity Score, Mean [3, 9]: 33.7
- CAPS-5 Total Severity Score, Median [3, 9]: 34.5
- CAPS-5 Total Severity Score, Mean [3, 10]: 26.2
- CAPS-5 Total Severity Score, Median [3, 10]: 28.0
- CAPS-5 Total Severity Score, Mean [3, 11]: 19.5
- CAPS-5 Total Severity Score, Median [3, 11]: 18.5
- CFB in CAPS-5 Total Severity Score, Mean [3, 12]: −10.3
- CFB in CAPS-5 Total Severity Score, Median [3, 12]: −9.0
- CFB in CAPS-5 Total Severity Score, Mean [3, 13]: −17.7
- CFB in CAPS-5 Total Severity Score, Median [3, 13]: −17.5
- CFB in CAPS-5 Total Severity Score, Mean [3, 14]: −24.4
- CFB in CAPS-5 Total Severity Score, Median [3, 14]: −25.0
- Loss of Diagnosis, % ([3]; T2 endpoint (Visit 8)): (23.9) %
- Non-Responder (<10-point reduction in CAPS-5 Total Severity Score), % ([3]; T2 endpoint (Visit 8)): (54.3) %
- Remission, % ([3]; T2 endpoint (Visit 8)): (8.7) %
- Responder (≥10-point reduction in CAPS-5 Total Severity Score), % ([3]; T2 endpoint (Visit 8)): (45.7) %
- Loss of Diagnosis, % ([3]; T3 endpoint (Visit 13)): (57.1) %
- Non-Responder (<10-point reduction in CAPS-5 Total Severity Score), % ([3]; T3 endpoint (Visit 13)): (26.2) %
- Remission, % ([3]; T3 endpoint (Visit 13)): (11.9) %
- Responder (≥10-point reduction in CAPS-5 Total Severity Score), % ([3]; T3 endpoint (Visit 13)): (73.8) %
- Loss of Diagnosis, % [3, 15]: (66.7) %
- Non-Responder (<10-point reduction in CAPS-5 Total Severity Score), % [3, 15]: (11.9) %
- Remission, % [3, 15]: (33.3) %
- Responder (≥10-point reduction in CAPS-5 Total Severity Score), % [3, 15]: (88.1) %
- change from Baseline to Visit 19 in CAPS-5 total severity scores ([3]; MAPP1, MMRM, de jure estimand, mITT): −24.50
- no longer met PTSD diagnostic criteria ([3]; MAPP1, Visit 19): 66.7%
- remission (CAPS-5 ≤11 and no longer meeting PTSD diagnostic criteria) ([3]; MAPP1, Visit 19): 33.3%
- responders (≥10-point reduction in CAPS-5 total severity score) ([3]; MAPP1, Visit 19): 88.1%
